From paper PMC8175350, “Drug repurposing screens identify chemical entities for the development of COVID-19 interventions” (Nature Communications, 2021)
“And” between values parts separate entries of the source, which are not always exact repeats. Identical values can stand only once. Like-named read-outs stand apart in the source and are kept apart here.

Columns and labels:
[1] = test system: Calu-3 cells
[2] = test system: HeLa-ACE2 cells; assay: Total cell count in the HeLa-ACE2 TOA (time of addition) assay; assay type: cell-based, human; settings: Homo sapiens, HeLa-ACE2; read-out: HeLa-ACE2 TOA cell count EC50 GeoMean
[3] = test system: Calu-3 cells; settings: read-out: Calu-3 cell count EC50 GeoMean
[4] = test system: SARS-CoV-2; assay: microbe, parasite or virus in culture; assay type: cell-based; settings: for SARS-CoV-2 % infected cells: 10 µM after 1 h infection; for TOA: HeLa-ACE2, replicate wells n=1-3
[5] = test system: HeLa-ACE2 cells; assay: cells; settings: Homo sapiens
[6] = test system: SARS-CoV-2; assay: microbe, parasite or virus in culture; assay type: cell-based; settings: for %infected: replicate wells n=1-3
[7] = test system: SARS-CoV-2; assay: microbe, parasite or virus in culture; assay type: cell-based; settings: for %infected: Calu-3, replicate wells n=1, n=3
[8] = test system: HeLa-ACE2 cells; assay: Uninfected HeLa-ACE2 24 h live/dead cytotoxicity counter screen; assay type: cell-based, human; settings: for cytotox: HeLa-ACE2, replicate wells n=1-3
[9] = as above; assay type: cell-based, human; settings: human, uninfected HeLa-ACE2 cells, geomean; read-out: uninfected HeLa-ACE2 cytotoxicity CC50
[10] = test system: SARS-CoV-2; assay type: cell-based
[11] = in vitro; settings: human, Calu-3 uninfected cytotoxicity CC50 GeoMean
[12] = test system: Calu-3 cells; assay: cells; settings: Homo sapiens, Calu-3, 48 h, read-out: Calu-3 cell count Sinf Average

With `Cc1cccc(/C=N/Nc2cc(N3CCOCC3)nc(OCCc3ccccn3)n2)c1` [Apilimod] the “uninfected Calu-3 CC50” value [1] was > 22.719 ×÷ 1.728 (n=4) μM, the “Calu-3 uninfected cytotoxicity Sinf Average” value ([1]; human, 48 h) was -100% and the EC50 [2] was over 9610 nM. For the same molecule, the EC50 [3] was over 9980 nM, the “SARS-CoV-2 % infected cells” value ([4]; 4:00:00 post infection) was 0.1789% and 0.1674% and 0.3723% and the “SARS-CoV-2 % infected cells” value ([4]; 5:00:00) was 0.5955% and 0.5104% and 0.3072%. The “SARS-CoV-2 % infected cells” value ([4]; 6:00:00) was 15.0073% and 13.3408% and 11.3931%, the “SARS-CoV-2 % infected cells” value ([4]; 7:00:00) was 26.4613% and 25.6934% and 26.6142% and the “SARS-CoV-2 % infected cells” value ([4]; 8:00:00) was 25.5362% and 27.3903% and 25.8074%. The “SARS-CoV-2 % infected cells” value ([4]; 10:00:00) was 26.7887% and 26.2316% and 26.281%, the “SARS-CoV-2 % infected cells” value ([4]; 11:00:00) was 30.9861% and 29.9763% and 30.0495% and the “SARS-CoV-2 % infected cells” value ([4]; 12:00:00) was 30.3761% and 30.6313% and 31.3141%. For the same molecule, the “SARS-CoV-2 % infected cells” value ([4]; 24:00:00) was 17.8372% and 19.3932% and 18.4264%, the “activity when treatment was initiated at 1 hpi” value ([4]; HeLa-ACE2, 10 µM) was “Loss of activity” and the TOA ([4]; concentration log[M] -5.61909) was -9.8778 and -6.262 and 0.3048 and -11.9309 and -26.5472 and -5.999 and -10.1028 and 0.08491 and -22.8314. For the same molecule, the TOA ([4]; concentration log[M] -6.09621) was 1.8452 and 11.477 and 4.5258 and -10.0091 and -14.0586 and -2.797 and -23.1834 and -27.6557 and -36.518, the TOA ([4]; concentration log[M] -6.57334) was -3.994 and -3.466 and -5.79 and -4.984 and -4.372 and -2.992 and -21.4509 and 1.122 and -26.1046 and the TOA ([4]; concentration log[M] -7.05046) was -6.181 and -4.5978 and -2.954 and -15.6715 and -7.849 and -0.2917 and -3.649 and -3.511 and -18.2837. For the same molecule, the TOA ([4]; concentration log[M] -7.52758) was 6.077 and -0.625 and 10.6098 and -1.822 and 4.214 and -1.579 and 5.171 and 1.731 and -77.382, the TOA ([4]; concentration log[M] -8.0047) was 2.779 and 3.019 and 8.825 and -4.236 and -3.9816 and -0.9799 and 1.304 and -2.325 and -36.3674 and the TOA ([4]; concentration log[M] -8.48182) was 7.953 and 7.587 and 8.026 and -5.856 and -0.7172 and 2.883 and 9.017 and -1.346 and -21.1061. The TOA ([4]; concentration log[M] -8.95894) was 0.4128 and 0.7327 and 13.745 and -6.2 and 7.839 and 1.622 and 7.708 and 2.325 and 1.297, the EC50 ([4]; Severe acute respiratory syndrome coronavirus 2, HeLa-ACE2, HeLa-ACE2, fixed 10 hpi, geomean, read-out: CoV-2 TOA EC50) was over 2400 nM and the EC50 ([4]; read-out: HeLa-ACE2 TOA CoV-2 EC50 GeoMean) was over 9610 nM. For the same molecule, the Emax ([5]; HeLa-ACE2, 24 h, read-out: HeLa-ACE2 cell count Sinf Average) was 100%, the EC50 ([5]; HeLa-ACE2, read-out: cell count in infection assay EC50, HeLa-ACE2, geomean, ^↑ = increasing dose-response curve) was over 2400 nM and the “increase in EC50 from MOI = 0.09 to MOI = 2.2” value ([6]; HeLa-ACE2) was 3.7 fold. The EC50 ([6]; HeLa-ACE2, geomean, read-out: SARS-CoV-2 EC50) was 11.3 nM, the EC50 ([6]; HeLa-ACE2, individual values of 9 independent experiments, read-out: EC50 (µM), Fig 1c) was 32 nM and 10 nM (2×) and 9 nM (3×) and 6 nM (2×) and 35 nM and the “%infected” value ([6]; HeLa-ACE2, concentration log[M] -5.61909) was -89.9366% and -97.9564% and -96.6883% and -98.5854% and -99.176% and -97.4315% and -98.076% and -88.0351% and -79.0377%. For the same molecule, the “%infected” value ([6]; HeLa-ACE2, concentration log[M] -6.09621) was -87.038% and -98.4457% and -97.9148% and -98.877% and -98.5692% and -99.1064% and -97.5527% and -92.9215% and -87.0799%, the “%infected” value ([6]; HeLa-ACE2, concentration log[M] -6.57334) was -75.6225% and -96.1764% and -98.2769% and -98.0074% and -97.3703% and -99.7483% and -98.3422% and -89.6186% and -88.4431% and the “%infected” value ([6]; HeLa-ACE2, concentration log[M] -7.05046) was -82.6962% and -96.6541% and -97.5624% and -97.8117% and -96.6757% and -95.0973% and -96.8567% and -85.1569% and -75.3432%. For the same molecule, the “%infected” value ([6]; HeLa-ACE2, concentration log[M] -7.52758) was -73.6156% and -84.2045% and -91.7586% and -85.2086% and -88.488% and -83.6715% and -88.6894% and -80.6843% and -66.0801%, the “%infected” value ([6]; HeLa-ACE2, concentration log[M] -8.0047) was -72.126% and -55.1215% and -37.7284% and -49.8809% and -50.2572% and -55.8328% and -53.8485% and the Emax ([6]; Severe acute respiratory syndrome coronavirus 2, HeLa-ACE2, 24 h, read-out: HeLa-ACE2 CoV-2 Sinf Average) was 93%. For the same molecule, the EC50 ([6]; Severe acute respiratory syndrome coronavirus 2, HeLa-ACE2, HeLa-ACE2, MOI 0.09, read-out: EC50) was 7.3 nM, the EC50 ([6]; Severe acute respiratory syndrome coronavirus 2, HeLa-ACE2, HeLa-ACE2, MOI 0.26, read-out: EC50) was 13.6 nM and the EC50 ([6]; Severe acute respiratory syndrome coronavirus 2, HeLa-ACE2, HeLa-ACE2, MOI 0.51, read-out: EC50) was 18.5 nM. The EC50 ([6]; Severe acute respiratory syndrome coronavirus 2, HeLa-ACE2, HeLa-ACE2, MOI 1.1, read-out: EC50) was 19.6 nM, the EC50 ([6]; Severe acute respiratory syndrome coronavirus 2, HeLa-ACE2, HeLa-ACE2, MOI 2.2, read-out: EC50) was 27 nM and the EC50 ([6]; Severe acute respiratory syndrome coronavirus 2, HeLa-ACE2, HeLa-ACE2, geomean, read-out: SARS-CoV-2 EC50) was 11 nM. For the same molecule, the EC50 ([6]; Severe acute respiratory syndrome coronavirus 2, HeLa-ACE2, detail column, read-out: HeLa-ACE2 CoV-2 EC50 GeoMean) was under 6.39 nM, the Emax ([6]; Severe acute respiratory syndrome coronavirus 2, HeLa-ACE2, of uninfected cells at the highest effective concentrations, read-out: maximal efficacy) was 85 to 90% and the “HeLa-ACE2 SI” value ([6]; selectivity index, uninfected HeLa-ACE2 CC50 / SARS-CoV-2 EC50) was over 4353.33. For the same molecule, the “%infected” value ([7]; concentration log[M] -5.00096) was -58.2494% and -10.7285% and -2.646% and 11.3057% and -47.5294% and -51.353%, the “%infected” value ([7]; concentration log[M] -5.47808) was -10.4468% and 0.966% and 9.424% and 3.404% and -12.1011% and -29.1583% and the “%infected” value ([7]; concentration log[M] -6.08014) was 2.91% and 6.263% and 12.1167% and 11.1729% and -9.57% and -12.4389%. The “%infected” value ([7]; concentration log[M] -6.42922) was 21.192% and -5.066% and 8.086% and -7.067% and 14.7327% and 9.4894%, the “%infected” value ([7]; concentration log[M] -6.90623) was 6.025% and 8.588% and -2.01% and -3.119% and -8.7% and -28.761% and the “%infected” value ([7]; concentration log[M] -7.50836) was -9.733% and 6.842% and -19.0732% and 2.18% and 27.3224% and 13.8795%. The “%infected” value ([7]; concentration log[M] -7.85886) was -0.02646% and -15.3004% and -8.282% and -4.911% and 23.6525% and 32.9983%, the “%infected” value ([7]; concentration log[M] -8.33602) was -3.111% and 7.385% and 13.7435% and 0.4251% and 25.7217% and 25.5685% and the Emax ([7]; Severe acute respiratory syndrome coronavirus 2, Calu-3, 48 h, read-out: Calu-3 CoV-2 Sinf Average) was 100%. The EC50 ([7]; read-out: Calu-3 CoV-2 EC50 GeoMean) was over 9380 nM, the “Calu-3 SI” value ([7]; selectivity index, uninfected Calu-3 CC50 / SARS-CoV-2 EC50) was over 2.42 and the cytotox ([8]; concentration log[M] -5) was -15.1899 and -14.2304 and -15.9372 and -48.9424 and -19.1078 and -64.1429 and -33.3149 and -48.2124 and -41.1568. For the same molecule, the cytotox ([8]; concentration log[M] -5.47712) was -17.5527 and -25.9243 and -24.6903 and -15.9737 and -27.2862 and -50.2857 and -23.1323 and -17.6598 and -11.2347, the cytotox ([8]; concentration log[M] -5.95424) was -21.6878 and -13.7145 and -16.6804 and -1.094 and -5.874 and -20.5714 and -18.1516 and -18.9599 and -15.1279 and the cytotox ([8]; concentration log[M] -6.43136) was -15.6962 and -19.7334 and -18.8274 and -9.409 and -6.171 and -21.1429 and -10.736 and -20.585 and -14.4605. The cytotox ([8]; concentration log[M] -6.90849) was -10.4641 and -3.052 and -4.5417 and -0.2188 and 4.684 and -6.286 and -9.519 and -8.4507 and -3.003, the cytotox ([8]; concentration log[M] -7.38561) was -11.3924 and -4.944 and -1.156 and 4.012 and 4.981 and -8.571 and -7.637 and -6.609 and -5.006 and the cytotox ([8]; concentration log[M] -7.86273) was 2.7 and 20.6793 and 5.12 and -0.3647 and 26.8401 and -1.429 and 8.744 and -0.2167 and 1.335. The cytotox ([8]; concentration log[M] -8.33985) was 2.785 and -0.6449 and 6.028 and -5.1787 and 6.3197 and -9.571 and 2.435 and -18.4182 and -5.673, the “HeLa-ACE2 uninfected cytotoxicity Sinf Average” value ([8]; human, uninfected HeLa-ACE2 cells, 24 h) was -100% and the CC50 ([8]; read-out: HeLa-ACE2 uninfected cytotoxicity CC50 GeoMean) was over 27800 nM. The CC50 at 24 h [9] was over 11500 nM, the “effect on viral replication in ALI-HBECs” value [10] was “did not” and the CC50 at 48 h [11] was over 22700 nM. It also gave an Emax [12] of 100%.
